Values after ≈ are worked out from the molar mass of the structure shown. Like-named read-outs stand apart in the source and are kept apart here. Values belong to the molecule of their own block, whether it stands above or below them.
What was measured:
[1] = Room temperature aqueous solubility with solubilizing agents (Example 36); assay type: physicochemical
Source text: The room temperature aqueous solubility (mg/mL) of the a compound (4-{(S)-2-[(S)-2-methoxycarbonylamino)-3-phenylpropanamido]-2-[2-(thiophen-2-yl)thiazol-4-yl]ethyl}phenylsulfamic acid) in water, HPβCD, Poloxamer 407, and sulfobutylether-β-cyclodextrin, is provided in TABLE XXVII. Solubility in saline for the test compound is reduced presumably due to the common ion effect.
The solubility (mg/mL) of the test compound in mixtures of HPβCD and PEG400 is illustrated in TABLE XXVIII.

[2] = Chemical and physical stability of aqueous solution formulations (Table XXIX); assay type: physicochemical; details: for Concentration of test compound in aqueous solution formulation shown to be chemically and physically stable: chemically stable 1 month at 50 °C, physically stable at 5 °C, ambient, 50 °C
Procedure: TABLE XXIX contains aqueous solution formulations of the test compound above with the denoted solvents that have been prepared and shown to be chemically stable through 1 month at 50° C., and physically stable at 5° C., at ambient temperature, and at 50° C. […] The target pH range for the formulations is pH 7+/−0.5 pH units.

[3] = human, in vivo
Procedure: FIG. 9 depicts the mean plasma concentration over time after a single dose of a 5 mg, a 15 mg, a 22.5 mg, or a 30 mg of a test compound on day 14, respectively, in a multiple ascending dose study in patients with diabetic macular edema.
A phase 1B/2A open-label, Multiple-ascending dose cohort study to assess the pharmacokinetics and pharmacodynamics effect of 28-day repeat subcutaneous dose of 4-{(S)-2-[(S)-2-(methoxycarbonylamino)-3-phenylpropanamido]-2-[2-(thiophen-2-yl)thiazol-4-yl]ethyl}phenylsulfamic acid (drug) in subjects with diffuse diabetic macular edema (DME).
The aim of this study was to evaluate tolerability, safety, efficacy and pharmacokinetics and pharmacodynamics in patients with DME involving the center of the fovea with central subfield mean thickness ≧325 μm measured by spectral domain-optical coherence tomography (SD-OCT).
Twenty-four patients were administered ascending doses of test compound twice daily (BID) for 28 days in 4 separate cohorts at 5, 15, 22.5 or 30 mg BID, respectively.
Drug was supplied as a lyophilized powder in a vial for reconstitution. Each vial contained 100 mg drug and 250 mg HPβCD. Vials were reconstituted with sterile 5% dextrose for cohort 1 (5 mg BID) and with sterile diluent containing 5% HPβCD/1% dextrose for cohorts 2, 3, and 4 (15 mg, 22.5 mg and 30 mg BID).
For cohorts 1 (5 mg BID) and 2 (15 mg BID) the volume administered for each dose was 0.5 ml (10 and 30 mg/ml, respectively) and for cohorts 3 and 4 the volume was 0.75 ml (30 and 40 mg/ml, respectively).
Blood samples for pharmacokinetic profiling were taken pre-dose (0), 15 minutes, 1 hour, 2 hours, 3 hours and 4 hours after administration of the first dose on day 14.
Plasma drug concentration was determined with a validated LC/MS-MS method. The pharmacokinetic (PK) parameters were determined using a standard non-compartmental method, and Cmax, AUClast (with last being from time 0 to the last quantifiable point), AUCinf, were analyzed statistically using log-transformed data.

Solubility [1]: 89 mg/mL (≈ 167 mM) | Solubility ([1]; aqueous with cosolvent or surfactant or cyclodextrin, Solubility): 60 mg/mL (≈ 113 mM) | Solubility ([1]; water, Solubility): 45 mg/mL (≈ 84.5 mM)
SMILES: CCc1csc([C@H](Cc2ccc(NS(=O)(=O)O)cc2)NC(=O)[C@H](Cc2ccccc2)NC(=O)OC)n1

solubility with either HPβCD or PEG400 individually [1]: increase in solubility | Solubility ([1]; 0% HPβCD, 15% PEG400): 30 mg/mL (≈ 51.1 mM) | Solubility ([1]; 0% HPβCD, 30% PEG400): 68 mg/mL (≈ 116 mM) | Solubility ([1]; 15% HPβCD, 0% PEG400): 59 mg/mL (≈ 101 mM) | Solubility ([1]; 15% HPβCD, 5% PEG400): 57 mg/mL (≈ 97.2 mM) | Solubility ([1]; 15% HPβCD, 10% PEG400): 34 mg/mL (≈ 57.9 mM) | Solubility ([1]; 15% HPβCD, 15% PEG400): 6 mg/mL (≈ 10.2 mM) | Solubility ([1]; room temperature, aqueous, 0% HPβCD (water)): 27 mg/mL (≈ 46 mM) | Solubility ([1]; room temperature, aqueous, 10% HPβCD): 45 mg/mL (≈ 76.7 mM) | Solubility ([1]; room temperature, aqueous, 15% SBE-β-CD): 44 mg/mL (≈ 75 mM) | Solubility ([1]; room temperature, aqueous, 20% HPβCD): 57 mg/mL (≈ 97.2 mM) | Solubility ([1]; room temperature, aqueous, 20% Poloxamer 407): 44 mg/mL (≈ 75 mM) | Solubility ([1]; room temperature, aqueous, 30% HPβCD): 72 mg/mL (≈ 123 mM) | solubility on addition of PEG400 to a mixture with HPβCD ([1]; solubility inversely proportional to the amount of PEG400): erosion of solubility | Concentration of test compound in aqueous solution formulation shown to be stable ([2]; 4.5% mannitol, one week at room temperature and one week at 50 °C): 5 mg/mL^b | Concentration of test compound in aqueous solution formulation shown to be chemically and physically stable ([2]; 10% HPβCD): 15000 µg/mL | Concentration of test compound in aqueous solution formulation evaluated for stability ([2]; 15% HPβCD/0.25% saline, evaluated for short-term physical stability at 5 °C and ambient temperature): 40 mg/mL^a | Concentration of test compound in aqueous solution formulation shown to be chemically and physically stable ([2]; 25% HPβCD): 50000 µg/mL | Concentration of test compound in aqueous solution formulation shown to be chemically and physically stable ([2]; 30% HPβCD): 50000 µg/mL | overall exposures versus dose [3]: approximately dose proportional | AUCinf Geometric Mean ([3]; 5 mg): 102.92 ng·h/mL | AUCinf Mean ([3]; 5 mg): 106.46 ng·h/mL | AUCinf Median ([3]; 5 mg): 100.55 ng·h/mL | AUCinf Min-Max ([3]; 5 mg): 70.1 to 155.1 ng·h/mL | AUClast Geometric Mean ([3]; 5 mg): 98.63 ng·h/mL | AUClast Mean ([3]; 5 mg): 101.56 ng·h/mL | AUClast Median ([3]; 5 mg): 97.03 ng·h/mL | AUClast Min-Max ([3]; 5 mg): 67.9 to 142.6 ng·h/mL | Cmax Geometric Mean ([3]; 5 mg): 0.07448 µg/mL | Cmax Mean ([3]; 5 mg): 0.07775 µg/mL | Cmax Median ([3]; 5 mg): 0.07344 µg/mL | Cmax Min-Max ([3]; 5 mg): 0.0447 to 0.1081 µg/mL | t1/2 Mean (SD) ([3]; 5 mg): 0.85 (0.186) hr | t1/2 Median ([3]; 5 mg): 49.8 min | t1/2 Min-Max ([3]; 5 mg): 36 to 66 min | tmax Mean (SD) ([3]; 5 mg): 0.31 (0.134) hr | tmax Median ([3]; 5 mg): 15.6 min | tmax Min-Max ([3]; 5 mg): 18 to 36 min | AUCinf Geometric Mean ([3]; 15 mg): 245.89 ng·h/mL | AUCinf Mean ([3]; 15 mg): 255.08 ng·h/mL | AUCinf Median ([3]; 15 mg): 232.89 ng·h/mL | AUCinf Min-Max ([3]; 15 mg): 176.8 to 387.4 ng·h/mL | AUClast Geometric Mean ([3]; 15 mg): 230.97 ng·h/mL | AUClast Mean ([3]; 15 mg): 239.08 ng·h/mL | AUClast Median ([3]; 15 mg): 213.32 ng·h/mL | AUClast Min-Max ([3]; 15 mg): 170.4 to 353.3 ng·h/mL | Cmax Geometric Mean ([3]; 15 mg): 0.14986 µg/mL | Cmax Mean ([3]; 15 mg): 0.15657 µg/mL | Cmax Median ([3]; 15 mg): 0.13805 µg/mL | Cmax Min-Max ([3]; 15 mg): 0.1025 to 0.2263 µg/mL | t1/2 Mean (SD) ([3]; 15 mg): 0.96 (0.282) hr | t1/2 Median ([3]; 15 mg): 53.4 min | t1/2 Min-Max ([3]; 15 mg): 36 to 84 min | tmax Mean (SD) ([3]; 15 mg): 0.27 (0.039) hr | tmax Median ([3]; 15 mg): 15 min | tmax Min-Max ([3]; 15 mg): 12 to 18 min | AUCinf Geometric Mean ([3]; 22.5 mg): 454.63 ng·h/mL | AUCinf Mean ([3]; 22.5 mg): 498.12 ng·h/mL | AUCinf Median ([3]; 22.5 mg): 358.19 ng·h/mL | AUCinf Min-Max ([3]; 22.5 mg): 322.4 to 813.8 ng·h/mL | AUClast Geometric Mean ([3]; 22.5 mg): 400.80 ng·h/mL | AUClast Mean ([3]; 22.5 mg): 437.51 ng·h/mL | AUClast Median ([3]; 22.5 mg): 328.84 ng·h/mL | AUClast Min-Max ([3]; 22.5 mg): 302.7 to 789.6 ng·h/mL | Cmax Geometric Mean ([3]; 22.5 mg): 0.21572 µg/mL | Cmax Mean ([3]; 22.5 mg): 0.2374 µg/mL | Cmax Median ([3]; 22.5 mg): 0.2032 µg/mL | Cmax Min-Max ([3]; 22.5 mg): 0.1427 to 0.4005 µg/mL | t1/2 Mean (SD) ([3]; 22.5 mg): 0.84 (0.093) hr | t1/2 Median ([3]; 22.5 mg): 52.2 min | t1/2 Min-Max ([3]; 22.5 mg): 42 to 54 min | tmax Mean (SD) ([3]; 22.5 mg): 0.45 (0.370) hr | tmax Median ([3]; 22.5 mg): 16.2 min | tmax Min-Max ([3]; 22.5 mg): 18 to 60 min | AUCinf Geometric Mean ([3]; 30 mg): 824.87 ng·h/mL | AUCinf Mean ([3]; 30 mg): 828.62 ng·h/mL | AUCinf Median ([3]; 30 mg): 834.70 ng·h/mL | AUCinf Min-Max ([3]; 30 mg): 729.7 to 921.4 ng·h/mL | AUClast Geometric Mean ([3]; 30 mg): 657.33 ng·h/mL | AUClast Mean ([3]; 30 mg): 669.37 ng·h/mL | AUClast Median ([3]; 30 mg): 700.90 ng·h/mL | AUClast Min-Max ([3]; 30 mg): 444.1 to 796.1 ng·h/mL | Cmax Geometric Mean ([3]; 30 mg): 0.31424 µg/mL | Cmax Mean ([3]; 30 mg): 0.32048 µg/mL | Cmax Median ([3]; 30 mg): 0.32085 µg/mL | Cmax Min-Max ([3]; 30 mg): 0.2209 to 0.4261 µg/mL | t1/2 Mean (SD) ([3]; 30 mg): 1.07 (0.338) hr | t1/2 Median ([3]; 30 mg): 55.8 min | t1/2 Min-Max ([3]; 30 mg): 48 to 90 min | tmax Mean (SD) ([3]; 30 mg): 0.63 (0.391) hr | tmax Median ([3]; 30 mg): 38.4 min | tmax Min-Max ([3]; 30 mg): 12 to 60 min | Tmax ([3]; sc, 30 mg): 12 to 60 min | elimination half-life ([3]; sc, 30 mg): 36 to 90 min
SMILES: COC(=O)N[C@@H](Cc1ccccc1)C(=O)N[C@@H](Cc1ccc(NS(=O)(=O)O)cc1)c1csc(-c2cccs2)n1 [test compound]
Physical and chemical stability of formulation ([2]; 4.5% mannitol, 5 mg/mL test compound, one week at room temperature and one week at 50 °C): ^bPhysically and chemically stable through one week at room temperature and one week at 50 °C

Reference: patent US9440963B2, “Compositions, formulations and methods for treating ocular diseases” (Aerpio Therapeutics Inc., priority 2013, dated 2016)
